Data taken from patent US5654427A, “Indolocarbazole derivatives to treat a pathological condition of the prostate” (Kyowa Hakko Kogyo Co., Ltd., priority 1995, dated 1997).
Read-outs that look alike come from different tables or passages of the source. One block for each compound: values may come before it.

Columns and labels:
[1] = body weight and weight of peripheral organs in sexually immature mice; settings: for Body Weight: Table 4, TEPBS 31.5 ± 0.8; for Heart weight / Testes weight / Lung weight / Stomach weight / Kidney weight / Liver weight: Table 5; for Heart weight: TEPBS 171 ± 8.4; for Testes weight: TEPBS 202 ± 6; for Lung weight: TEPBS 230 ± 15.9; for Stomach weight: TEPBS 294 ± 22; for Kidney weight: TEPBS 576 ± 22; for Liver weight: TEPBS 1937 ± 75
Description: (§1) The following animal model can be used to test the efficacy of a functional derivative for treatment of a proliferative prostate condition. Sexually immature male mice of 15-20 g each (Charles River Laboratories, Raleigh, N.C.) were used in the following in vivo study. The mice were allowed at least 3 days after purchase to acclimate before being used in any experiments.
(§2) Each test group contained 12 mice. […] At the end of the 21 day dosing period the mice were sacrificed and whole body blood, dorsal prostate, ventral prostate, coagulating glands, seminal vesicles, heart, liver, stomach, lung, kidneys and testes were collected separately and weighed.

DU-145 = experiment: growth inhibition of DU-145 prostate cancer cells (calcein fluorescence); format: cell-based; settings: Homo sapiens, DU-145, 72 h, read-out: DU-145 C50
Description: (§3) Throughout the experiment the Tsu-Pr1 and Du-Pro1 cells were maintained in RPMI 1640 medium (GIBCO) containing 10% fetal bovine serum (Hyclone), 2 mM glutamine, 100 U/ml penicillin, and 100 μg/ml streptomycin. The PC-3 cells were maintained in Ham's F12K medium (Irvine Scientific) containing 10% fetal bovine serum (Hyclone), 2 mM glutamine, 100 U/ml penicillin, and 100 μg/ml streptomycin. All cell lines were maintained at 37° C. in a humidified atmosphere containing 5% CO2. The DU-145 cells were maintained in minimal essential medium (Gibco), containing 10% fetal bovine serum (Hyclone), 2 mM glutamine, and no antibiotics.
(§4) Tests for growth inhibition by the candidate compounds were conducted by the following procedure. In each well of a 96-well plate (Falcon) were placed 2,500 cells in 0.1 ml of medium. The cultures were incubated overnight after which a 0.1 ml aliquot of culture medium was added to each well. […] Other control wells received medium without any K-252a derivative compounds. Incubation was continued for three days. On day three the number of cells in each well was measured using a calcein fluorescence assay (Bozyczko-Coyne et al. J. Neurosci. Meth. 50, 205-216 (1993)).
(§5) Calcein AM (Molecular Probes, Eugene, Oreg.), an analog of the viable dye fluorescein diacetate, is taken up by cells and cleaved intracellularly to fluorescent salts that are retained by intact membranes of viable cells. This method thus provides a reliable and quantitative measurement of cell survival. Calcein AM was diluted 2× in Dulbeccos phosphate buffered saline (D-PBS) to 2× the final assay concentration (6 μM) and 100 μl was added to culture wells containing 100 μl of medium. The plates were then incubated for 1 hour at 37° C. Cells were then washed 4 times with D-PBS to remove excess calcein not taken up by cells. The plate was read using a Millipore plate reading fluorimeter (Cytofluor 2350) at emission=485 nm and excitation=538 nm. After subtraction of blank values (wells containing medium but no cells), relative fluorescent values reflect a quantitative measurement of cell survival.
(§6) The number of cells in the wells containing functional derivatives was compared to the number of cells in the control wells. The concentration which inhibited cell growth by 50% was calculated and is referred to as the "IC50 ".

protein kinase A = settings: background; cited from earlier work
protein kinase C = settings: background; cited from earlier work
Du-Pro1 = experiment: growth inhibition of Du-Pro1 prostate cancer cells (calcein fluorescence); format: cell-based; settings: Homo sapiens, 72 h, read-out: Du-Pro1 IC50
Description: as §3, §4, §5, §6

protein kinase G = settings: background; cited from earlier work
prostate glands = experiment: inhibition of prostate growth in sexually immature mice (weight of prostate glands); format: in vivo; settings: for Dorsal Prostate weight: TEPBS 9.8 ± 1.6; for Coagulating Glands weight: TEPBS 25.1 ± 1.6; for Seminal Vesicles weight: TEPBS 75.0 ± 5.0
Description: as §1, §2

[2] = test system: myosin light-chain kinase; settings: background; cited from earlier work
PC-3 = experiment: growth inhibition of PC-3 prostate cancer cells (calcein fluorescence); format: cell-based; settings: Homo sapiens, PC-3, 72 h, read-out: PC-3 IC50
Description: as §3, §4
(§7) Calcein AM (Molecular Probes, Eugene, Oreg.), an analog of the viable dye fluorescein diacetate, is taken up by cells and cleaved intracellularly to fluorescent salts that are retained by intact membranes of viable cells. This method thus provides a reliable and quantitative measurement of cell survival. Calcein AM was diluted 2× in Dulbeccos phosphate buffered saline (D-PBS) to 2× the final assay concentration (6 μM) and 100 μl was added to culture wells containing 100 μl of medium. The plates were then incubated for 1 hour at 37° C. Cells were then washed 4 times with D-PBS to remove excess calcein not taken up by cells. The plate was read using a Millipore plate reading fluorimeter (Cytofluor 2350) at emission=485 nm and excitation=538 nm. After subtraction of blank values (wells containing medium but no cells), relative fluorescent values reflect a quantitative measurement of cell survival. […]

Tsu-Pr1 = experiment: growth inhibition of Tsu-Pr1 prostate cancer cells (calcein fluorescence); format: cell-based; settings: Homo sapiens, TSU-Pr1, 72 h, read-out: Tsu-Pr1 IC50
Description: as §3, §4, §5, §6

phosphorylase kinase = settings: background; cited from earlier work
trkA = molecular target: T1, trkA (Rattus norvegicus, UniProt P35739); experiment: inhibition of NGF-stimulated trk autophosphorylation (tyrosine phosphorylation) in PC12 cells, anti-phosphotyrosine Western blot; format: cell-based; settings: 100 nM compound, NGF 50 ng/ml; further: key: +: Inhibited phosphorylation; -: Did not inhibit phosphorylation
T1 construct: are rat pheochromocytoma cells that bear trkA; host or cells: PC12 rat pheochromocytoma cells
Description: Candidate compounds for the inhibition of prostate cell proliferation were selected according to their ability to inhibit the tyrosine kinase activity associated with the trks.
PC12 cells (ATCC #CRL1721) are rat pheochromocytoma cells that bear trkA and differentiate into sympathetic neurons when treated with NGF. […] Cells were incubated at 37° C. in a humidified atmosphere of 10% CO2 and 90% air. […] The cells in each culture were disrupted and cell lysates were prepared by standard techniques known to those skilled in the art. Each lysate was incubated with anti-trk antibody whereby immune complexes were formed. […] The immune complexes were collected on Protein A-Sepharose beads, separated by SDS-polyacrylamide gel electrophoresis (SDS-PAGE), and transferred to polyvinylidene difluoride (PVDF) membranes (Millipore Corp., Bedford, Mass.), using techniques well known to those skilled in the art. The membranes were incubated with anti-phosphotyrosine antibody, which binds to the tyrosine phosphorylated trks, but not to the un-phosphorylated form of trks. Proteins bound to anti-phosphotyrosine antibody were visualized with enhanced chemiluminescence (ECL, Amersham), and are shown as dark "spots" in FIG. 1.
Measurement of the autophosphorylation of trk provides a good index of trk tyrosine kinase activity, and thereby of trk stimulation.
Inhibition was indicated by the absence of a spot migrating with the trk marker shown at the left side of the figure. Partial inhibition was indicated by a spot of reduced size.

[3] = test system: androgen independent human prostate cancer cell lines Tsu-Pr1, DuPro-1, PC-3 and DU-145; experiment: growth inhibition of prostate cancer-derived cell lines, overall (calcein fluorescence); format: cell-based; settings: Table 3
Description: as §3, §4, §7

[4] = Table 4, 1 mg/kg s.c. daily 21 days
[5] = Table 4, 10 mg/kg s.c. daily 21 days

T1 sequence (P35739 33-799): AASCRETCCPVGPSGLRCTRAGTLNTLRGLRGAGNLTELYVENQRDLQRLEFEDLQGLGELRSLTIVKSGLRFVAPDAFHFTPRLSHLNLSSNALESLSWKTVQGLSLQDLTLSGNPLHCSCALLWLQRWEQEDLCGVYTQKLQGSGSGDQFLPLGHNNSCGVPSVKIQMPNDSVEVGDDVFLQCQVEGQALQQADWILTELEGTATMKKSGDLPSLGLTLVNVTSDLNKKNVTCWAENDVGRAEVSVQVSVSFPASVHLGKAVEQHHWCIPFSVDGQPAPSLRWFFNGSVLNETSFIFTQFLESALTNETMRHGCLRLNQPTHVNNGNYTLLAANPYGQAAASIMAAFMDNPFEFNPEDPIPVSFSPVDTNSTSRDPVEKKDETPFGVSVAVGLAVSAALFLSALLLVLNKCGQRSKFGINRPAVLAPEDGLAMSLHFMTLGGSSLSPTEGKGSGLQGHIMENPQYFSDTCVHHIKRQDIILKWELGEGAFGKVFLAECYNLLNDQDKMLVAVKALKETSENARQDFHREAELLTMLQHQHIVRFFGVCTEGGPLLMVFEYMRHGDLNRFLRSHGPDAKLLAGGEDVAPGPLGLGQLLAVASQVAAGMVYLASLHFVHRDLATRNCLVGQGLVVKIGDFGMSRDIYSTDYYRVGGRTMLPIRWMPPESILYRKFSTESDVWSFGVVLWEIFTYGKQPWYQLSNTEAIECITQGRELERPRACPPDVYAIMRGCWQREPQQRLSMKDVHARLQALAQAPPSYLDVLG

SMILES: COC(=O)C1(O)CC2OC1(C)n1c3ccccc3c3c4c(c5c6ccccc6n2c5c31)C(=O)NC4 (stereo not shown) [Compound I-1]
- Body Weight ([1]; 1 mg/kg s.c. daily 21 days): 32.2 ± 0.6 g
- Body Weight ([1]; 10 mg/kg s.c. daily 21 days): 30.0 ± 0.6 g
- Heart weight ([1]; 1 mg/kg s.c. daily 21 days): 164 ± 6.4 mg
- Testes weight ([1]; 1 mg/kg s.c. daily 21 days): 216 ± 6 mg
- Lung weight ([1]; 1 mg/kg s.c. daily 21 days): 229 ± 8.02 mg
- Stomach weight ([1]; 1 mg/kg s.c. daily 21 days): 288 ± 10 mg
- Kidney weight ([1]; 1 mg/kg s.c. daily 21 days): 598 ± 19 mg
- Liver weight ([1]; 1 mg/kg s.c. daily 21 days): 1921 ± 81 mg
- Heart weight ([1]; 10 mg/kg s.c. daily 21 days): 152 ± 6.58 mg
- Testes weight ([1]; 10 mg/kg s.c. daily 21 days): 204 ± 11 mg
- Lung weight ([1]; 10 mg/kg s.c. daily 21 days): 263 ± 14.8 mg
- Stomach weight ([1]; 10 mg/kg s.c. daily 21 days): 295 ± 30 mg
- Kidney weight ([1]; 10 mg/kg s.c. daily 21 days): 550 ± 18 mg
- Liver weight ([1]; 10 mg/kg s.c. daily 21 days): 1765 ± 50 mg
- IC50 (DU-145): 1200 nM
- inhibitor of protein kinase A (protein kinase A): inhibitor
- inhibitor of protein kinase C (protein kinase C): inhibitor
- IC50 (Du-Pro1): 750 nM
- inhibitor of protein kinase G (protein kinase G): inhibitor
- weight of the ventral prostates and seminal vesicles, in words (prostate glands; 1 mg/kg): significantly reduced the weight of the ventral prostates and seminal vesicles
- effect of the higher dose, in words (prostate glands; 10 mg/kg versus 1 mg/kg): did not produce any greater effect
- Dorsal Prostate weight (prostate glands; [4]): 6.2 ± 1.3 mg
- Coagulating Glands weight (prostate glands; [4]): 18.2 ± 2.4 mg
- Seminal Vesicles weight (prostate glands; [4]): 61.4 ± 4.1 mg
- Dorsal Prostate weight (prostate glands; [5]): 6.7 ± 0.7 mg
- Coagulating Glands weight (prostate glands; [5]): 18.5 ± 1.4 mg
- Seminal Vesicles weight (prostate glands; [5]): 66.4 ± 5.6 mg
- Ventral Prostate weight (prostate glands; mouse, in vivo, sc, 1 mg/kg): 7.6 ± 0.9 mg
- Ventral Prostate weight (prostate glands; mouse, in vivo, sc, 10 mg/kg): 8.6 ± 0.8 mg
- inhibitor of myosin light-chain kinase [2]: inhibitor
- IC50 (PC-3): 3400 nM
- IC50 (Tsu-Pr1): 210 nM
- inhibitor of phosphorylase kinase (phosphorylase kinase): inhibitor

- IC50 (DU-145; 3 days incubation): 750 nM
- trk 100 nM (inhibition of phosphorylation) (trkA): +
- IC50 (Du-Pro1; 3 days incubation): 310 nM
- IC50 (PC-3; 3 days incubation): 690 nM
- IC50 (Tsu-Pr1; 3 days incubation): 38 nM
SMILES: CC12OC(CC1(O)C(=O)NCCO)n1c3ccccc3c3c4c(c5c6ccccc6n2c5c31)CNC4=O (stereo not shown) [Compound I-12]
- Body Weight ([1]; 1 mg/kg s.c. daily 21 days): 32.8 ± 0.4 g
- Body Weight ([1]; 10 mg/kg s.c. daily 21 days): 29.5 ± 1.0 g
- Heart weight ([1]; 1 mg/kg s.c. daily 21 days): 179 ± 8.78 mg
- Testes weight ([1]; 1 mg/kg s.c. daily 21 days): 191 ± 12 mg
- Lung weight ([1]; 1 mg/kg s.c. daily 21 days): 244 ± 15.1 mg
- Stomach weight ([1]; 1 mg/kg s.c. daily 21 days): 329 ± 28 mg
- Kidney weight ([1]; 1 mg/kg s.c. daily 21 days): 591 ± 16 mg
- Liver weight ([1]; 1 mg/kg s.c. daily 21 days): 2120 ± 54 mg
- Heart weight ([1]; 10 mg/kg s.c. daily 21 days): 152 ± 9.60 mg
- Testes weight ([1]; 10 mg/kg s.c. daily 21 days): 187 ± 5 mg
- Lung weight ([1]; 10 mg/kg s.c. daily 21 days): 253 ± 20.9 mg
- Stomach weight ([1]; 10 mg/kg s.c. daily 21 days): 270 ± 19 mg
- Kidney weight ([1]; 10 mg/kg s.c. daily 21 days): 552 ± 29 mg
- Liver weight ([1]; 10 mg/kg s.c. daily 21 days): 1886 ± 84 mg
- potency in inhibiting prostate cell line growth, in words [3]: most potent compounds in inhibiting growth in all four cell lines
- weight of the ventral prostates and seminal vesicles, in words (prostate glands; 1 mg/kg): reduced the weight of the ventral prostates and seminal vesicles
- weight of the dorsal prostate, in words (prostate glands; 1 mg/kg and 10 mg/kg): only reduced after treatment with 1 mg/kg
- weight of the ventral prostates and seminal vesicles, in words (prostate glands; 10 mg/kg): reduced the weight of the ventral prostates and seminal vesicles
- Dorsal Prostate weight (prostate glands; [4]): 4.7 ± 0.4 mg
- Ventral Prostate weight (prostate glands; Table 4, 1 mg/kg s.c. daily 21 days, TEPBS 11.3 ± 0.6): 6.2 ± 0.4 mg
- Coagulating Glands weight (prostate glands; [4]): 18.0 ± 2.4 mg
- Seminal Vesicles weight (prostate glands; [4]): 54.3 ± 1.5 mg
- Dorsal Prostate weight (prostate glands; [5]): 8.6 ± 1.1 mg
- Ventral Prostate weight (prostate glands; Table 4, 10 mg/kg s.c. daily 21 days, TEPBS 11.3 ± 0.6): 8.4 ± 0.8 mg
- Coagulating Glands weight (prostate glands; [5]): 17.6 ± 1.0 mg
- Seminal Vesicles weight (prostate glands; [5]): 55.3 ± 2.2 mg
